The values below come from patent US20140378513A1, “USE OF FUNGICIDES IN LIQUID SYSTEMS” (priority 2011, published 2014).

A value given as a limit tells only on which side of the number the result lay.

One data set relates to microalgae. The experiment in a line: Ranges of microalgae toxicity (serial dilution of fungicide in growing culture). Conditions: range in which fungicide begins to show growth effects on microalgae. The source says:
The present disclosure provides for the introduction of fungicides at an effective concentration. Effective concentrations may be determined according to manufacturer's instructions or may be determined empirically. An effective concentration of a fungicide is not toxic to the microalgae being cultured in the liquid system. Methods to determine toxicity are known in the art and include serial dilutions of a test fungicide in a growing liquid culture of microalgae. One of skill in the art would understand that different microalgae may have different ranges of toxicity that may be determined by growth of a microalga in the presence of a serial dilution of a fungicide.
Algae are screened for sensitivity to chemicals by preparing 180 ml of a log phase culture. The log phase culture is transferred into a 96 well microtiter plate at an absorbance at 750 nm (OD750 or A750) of ˜0.2. Twenty microliters of media is provided into the top row as a negative control, the middle six rows receive a 20 microliter dilution, which is a 10 fold dilution of the chemical at each transfer, of the chemical across an appropriate concentration gradient, and the bottom row receives 20 microliter of the solvent used to solubilize the pesticide alone as a control. The total volume per well is 200 μl. Each chemical is tested in triplicate. The growth of the algae is tracked daily by measuring the A750. After 8 days, the growth rate of the algae is measured by fitting the growth curve to a log model and deriving the maximum growth rate (r). The impact of the chemical is calculated by comparing the r of the algae at various dilutions of the pesticide to the control.

The test system of the next data set is Desmid species. The experiment in a line: Algae sensitivity screen, 96 well, growth rate by A750 over 8 days. Type of data set: cell-based. The method, then:
(§1) The total volume per well is 200 μl. Each chemical is tested in triplicate.

A further data set relates to Scenedesmus dimorphus. The data set is described as above. Type of data set: cell-based. As to the method:
as §1

For a further data set, the system named is Scenedesmus species. Described as above. Type of data set: cell-based. The method, then:
as §1

Data set [1] deals with Pest in infected Scenedesmus dimorphus culture. The experiment in a line: Fungicide efficacy on pest control in infected microalgae culture. It is filed as cell-based. The conditions noted are these: for positive efficacy in a first trial confirmed in a second trial: Table 6; for Rating: rating scale of 0 to 3 by percent efficacy; for Scenedesmus dimorphus efficacy: first trial. The source says: Failure to treat an infected culture results in the collapse and loss of the microalgae culture. […] Test fungicides are graded on a rating scale of 0 to 3 where a score of 0 represents an efficacy of between 0 and 25%, a score of 1 represents an efficacy of between 26 and 50%, a score of 2 represents an efficacy of between 51 and 75% and a score of 3 represents an efficacy of between 76 and 100%.

The subject of another data set is pest FD100. In words: 200,000 liter outdoor desmid pond P08, qPCR monitoring and treatment. Also noted: species or system chytrid FD100. Conditions: 1 ppm added on day 30 after decrease in optical density. The method, then: A 200,000 liter outdoor pond located in Las Cruces, N. Mex. is inoculated with a desmid strain at an initial OD (750 nm) of ˜0.15 (pond P08). Growth of the microalgae is monitored daily by measuring the ash free dry weight of the culture. PCR monitoring is performed daily to detect the presence of pests.
Initially, the Ct value for the pest is above the threshold of Ct=30 until day 15 (See, FIG. 14). The measured Ct observed for pest FD100 monitoring stays below Ct=30 and indicates a need for crop protective action. On day 18 post-inoculation, fluazinam is added at a concentration of 0.5 ppm. Daily monitoring is continued and the Ct observed for pest FD100 increases above the Ct=30 threshold and remains above the threshold through day 38.
Successful culture depends on the timely identification of a pest. On day 30, in response to a decrease in optical density of the culture, 1 ppm of pyraclostrobin is added.

The mark [2] stands for this setting: log phase culture, 10 fold dilutions.
Setting [3] is: log phase culture, 10 fold dilutions, 8 days.
[4] abbreviates: Tetradesmus dimorphus, read-out: Scenedesmus dimorphus efficacy.

On to `CC1=C(C(=O)Nc2ccccc2)SCCO1` [carboxine, 6-methyl-N-phenyl-2,3-dihydro-1,4-oxathiine-5-carboxamide], for which the “Ranges of Microalgae toxicity” value in the data set with microalgae was 0.977-3.906 ppm. Besides, the Desmid species toxicity in the data set with Desmid species (setting [2]) is listed as 0.977-3.906 ppm. In addition, the Scenedesmus dimorphus toxicity in the data set with Scenedesmus dimorphus (setting [2]) is reported as 0-0.244 ppm. In the data set with Scenedesmus species (setting [3]), the Scenedesmus species toxicity is 0.244-0.977 ppm. Also, in data set [1], the “positive efficacy in a first trial confirmed in a second trial” value is listed as “not confirmed”; the Rating was 0 (a score of 0 represents an efficacy of between 0 and 25%). Further, the activity at 5 ppm in data set [1] (setting [4]) came out at 24.6%.

Turning to `Cc1ccc(-c2c(Cl)nc(C#N)n2S(=O)(=O)N(C)C)cc1` [cyazofamid], the “Ranges of Microalgae toxicity” value in the data set with microalgae is 0.03125-0.125 ppm. Further, the Desmid species toxicity with Desmid species (Desmid species) is 0.125-0.500 ppm. In the data set on Scenedesmus dimorphus (Scenedesmus dimorphus), the Scenedesmus dimorphus toxicity is 0.03125-0.125 ppm. In addition, in the data set on Scenedesmus species (Scenedesmus species, 8 days), the Scenedesmus species toxicity was 0.03125-0.125 ppm. The Rating in data set [1] is 0 (a score of 0 represents an efficacy of between 0 and 25%).

Regarding `CNC(=O)/C(=N/OC)c1ccccc1COc1cc(C)ccc1C` [dimoxystrobin], the “Ranges of Microalgae toxicity” value in the data set on microalgae is reported as 0.004-0.0625 ppm. Also, the Desmid species toxicity with Desmid species (setting [2]) is reported as 0.004-0.0156 ppm. Further, in the data set with Scenedesmus dimorphus (setting [2]), the Scenedesmus dimorphus toxicity is on record as 0.0156-0.0625 ppm. For the same compound, in the data set on Scenedesmus species (setting [3]), the Scenedesmus species toxicity is on record as 0.0156-0.0625 ppm. The Rating in data set [1] was 0 (a score of 0 represents an efficacy of between 0 and 25%).

Turning to `CC(Cc1ccc(C(C)(C)C)cc1)CN1CCCCC1` (centres unmarked) [fenpropidin, 1-[3-(4-tert-butylphenyl)-2-methylpropyl]piperidine], in the data set on microalgae, the “Ranges of Microalgae toxicity” value was 0.00195-1.953 ppm. Further, the Desmid species toxicity in the data set with Desmid species (setting [2]) was 0.031-0.125 ppm. In the data set with Scenedesmus dimorphus (setting [2]), the Scenedesmus dimorphus toxicity is 0.00195-0.0078 ppm. Further, the Scenedesmus species toxicity in the data set with Scenedesmus species (cell marked (ppb)) is on record as 0.488-1.953 ppb. In data set [1], the “positive efficacy in a first trial confirmed in a second trial” value is listed as “not confirmed”; the Rating was 0 (a score of 0 represents an efficacy of between 0 and 25%). For the same compound, the activity at 0.8 ppm in data set [1] (setting [4]) came to 18.5%.

As for `O=C(Nc1ccccc1)N(Cc1ccc(Cl)cc1)C1CCCC1` [pencycuron], in the data set with microalgae, the “Ranges of Microalgae toxicity” value is reported as 0.781-12.5 ppm. For the same compound, the Desmid species toxicity with Desmid species (setting [2]) is 3.125-12.5 ppm. Further, the Scenedesmus dimorphus toxicity with Scenedesmus dimorphus (setting [2]) is 3.125-12.5 ppm. In addition, the Scenedesmus species toxicity with Scenedesmus species (setting [3]) is recorded as 0.781-3.125 ppm. Moreover, in data set [1], the Rating was 0 (a score of 0 represents an efficacy of between 0 and 25%).

With `CCCOC(=O)NCCCN(C)C` [propamocarb], in the data set with microalgae, the “Ranges of Microalgae toxicity” value is 3.906-62.5 ppm. For the same compound, the Desmid species toxicity with Desmid species (setting [2]) is 3.906-15.625 ppm. In the data set on Scenedesmus dimorphus (setting [2]), the Scenedesmus dimorphus toxicity is on record as 15.63-62.5 ppm. In the data set with Scenedesmus species (setting [3]), the Scenedesmus species toxicity was 3.906-15.63 ppm. In addition, the Rating in data set [1] is 0 (a score of 0 represents an efficacy of between 0 and 25%).

Turning to `COC(=O)N(OC)c1ccccc1COc1ccn(-c2ccc(Cl)cc2)n1` [pyraclostrobin, methyl N-[2-[[[1-(4-chlorophenyl)-1H-pyrazol-3-yl]oxy]methyl]phenyl]-N-methoxycarbamate], in the data set on microalgae, the “Ranges of Microalgae toxicity” value is above 15 ppm. Besides, the activity at 2 ppm in data set [1] (setting [4]) came to 66%. Also, the Rating in data set [1] is 2 (a score of 2 represents an efficacy of between 51 and 75%). Besides, in the data set with pest FD100, the “culture outcome after second fungicide” value was “the culture collapses”.

Take `CON=C(Cc1cccnc1)c1ccc(Cl)cc1Cl` [pyrifenox]: in the data set with microalgae, the “Ranges of Microalgae toxicity” value was 0.004-0.156 ppm. In addition, in the data set with Desmid species (setting [2]), the Desmid species toxicity was 0.004-0.0156 ppm. In addition, the Scenedesmus dimorphus toxicity with Scenedesmus dimorphus (setting [2]) is 0.039-0.156 ppm. Moreover, the Scenedesmus species toxicity with Scenedesmus species (setting [3]) is recorded as 0.039-0.156 ppm. Besides, in data set [1] (result as symbol), the Scenedesmus dimorphus efficacy entry is on record as “(+/−)”. Moreover, the Rating in data set [1] is 0 (a score of 0 represents an efficacy of between 0 and 25%).

For `CCCN(CC)CC1COC2(CCC(C(C)(C)C)CC2)O1` (centres unmarked) [spiroxamine], the “Ranges of Microalgae toxicity” value with microalgae is 0.0625-1.0 ppm. Moreover, the Desmid species toxicity in the data set on Desmid species (Desmid species) was 0.250-1.0 ppm. In addition, the Scenedesmus dimorphus toxicity in the data set with Scenedesmus dimorphus (Scenedesmus dimorphus) is recorded as 0.0625-0.250 ppm. For the same compound, the Scenedesmus species toxicity in the data set with Scenedesmus species (Scenedesmus species, 8 days) was 0.250-1.0 ppm. For the same compound, in data set [1], the Rating is 0 (a score of 0 represents an efficacy of between 0 and 25%).

Regarding `Cc1ccc(N(SC(F)(Cl)Cl)S(=O)(=O)N(C)C)cc1` [tolylfluanid, N-[dichloro(fluoro)methyl]sulfanyl-N-(dimethylsulfamoyl)-4-methylaniline], the “Ranges of Microalgae toxicity” value in the data set on microalgae was 1.56-25.0 ppm. The Desmid species toxicity in the data set with Desmid species (Desmid species) is 6.25-25.0 ppm. Also, the Scenedesmus dimorphus toxicity with Scenedesmus dimorphus (Scenedesmus dimorphus) is recorded as 1.56-6.25 ppm. Further, the Scenedesmus species toxicity in the data set with Scenedesmus species (Scenedesmus species, 8 days) is listed as 6.25-25.0 ppm. Besides, the Scenedesmus dimorphus efficacy in data set [1] (5 ppm, result in words) was 5 ppm Delayed Crash. Further, in data set [1], the Rating is 0 (a score of 0 represents an efficacy of between 0 and 25%).

For the compound `CCCOC/C(=N\c1ccc(Cl)cc1C(F)(F)F)n1ccnc1` [triflumizole], in the data set with microalgae, the “Ranges of Microalgae toxicity” value was 1.563-6.25 ppm. For the same compound, in the data set on Desmid species (Desmid species), the Desmid species toxicity is reported as 1.563-6.25 ppm. Besides, the Scenedesmus dimorphus toxicity with Scenedesmus dimorphus (Scenedesmus dimorphus) is reported as 1.563-6.25 ppm. Also, in the data set with Scenedesmus species (Scenedesmus species, 8 days), the Scenedesmus species toxicity is reported as 1.563-6.25 ppm. Moreover, the Rating in data set [1] was 0 (a score of 0 represents an efficacy of between 0 and 25%).

Consider `CCC(C)(NC(=O)c1cc(Cl)c(C)c(Cl)c1)C(=O)CCl` (centres unmarked) [zoxamide], for which the “Ranges of Microalgae toxicity” value in the data set with microalgae was 0.0156-0.250 ppm. In the data set on Desmid species (Desmid species), the Desmid species toxicity is recorded as 0.0156-0.0625 ppm. Further, the Scenedesmus dimorphus toxicity in the data set with Scenedesmus dimorphus (Scenedesmus dimorphus) is on record as 0.0625-0.250 ppm. For the same compound, in the data set with Scenedesmus species (Scenedesmus species, 8 days), the Scenedesmus species toxicity is reported as 0.0156-0.0625 ppm. Moreover, the Rating in data set [1] was 0 (a score of 0 represents an efficacy of between 0 and 25%).
